According to PubChem BioAssay (NCI):
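Tested at 5 concentrations; 48 h exposure; 96-well plates; endpoints linearly interpolated, else capped at highest concentration. GI50: concentration for 50% inhibition of growth. At the TGI there is no net growth.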

Columns and labels:
Test in all cases: DTP human tumour cell line panel, 48 h
U251 CNS = test system: U251 CNS
HOP-92 NSCLC = test system: HOP-92 NSCLC
SK-OV-3 ovarian = test system: SK-OV-3 ovarian
NCI-H522 lung = test system: NCI-H522 lung
KM12 colon = test system: KM12 colon
DU-145 prostate = test system: DU-145 prostate
NCI/ADR-RES ovarian = test system: NCI/ADR-RES ovarian
SW-620 colon = test system: SW-620 colon
MDA-MB-231 breast = test system: MDA-MB-231 breast
SK-MEL-5 melanoma = test system: SK-MEL-5 melanoma
SF-295 CNS = test system: SF-295 CNS
HCT-116 colon = test system: HCT-116 colon
IGROV1 ovarian = test system: IGROV1 ovarian
NCI-H226 lung = test system: NCI-H226 lung
CAKI-1 renal = test system: CAKI-1 renal
HCT-15 colon = test system: HCT-15 colon
OVCAR-5 ovarian = test system: OVCAR-5 ovarian
HT29 colon = test system: HT29 colon
SK-MEL-2 melanoma = test system: SK-MEL-2 melanoma
SNB-19 CNS = test system: SNB-19 CNS
786-0 renal = test system: 786-0 renal
SK-MEL-28 melanoma = test system: SK-MEL-28 melanoma
HCC-2998 colon = test system: HCC-2998 colon
UO-31 renal = test system: UO-31 renal
HL-60(TB) leukemia = test system: HL-60(TB) leukemia
TK-10 renal = test system: TK-10 renal
SF-539 CNS = test system: SF-539 CNS
PC-3 prostate = test system: PC-3 prostate
OVCAR-4 ovarian = test system: OVCAR-4 ovarian
M14 melanoma = test system: M14 melanoma
RXF 393 renal = test system: RXF 393 renal
SNB-75 CNS = test system: SNB-75 CNS
NCI-H460 lung = test system: NCI-H460 lung
HS 578T breast = test system: HS 578T breast
MOLT-4 leukemia = test system: MOLT-4 leukemia
EKVX NSCLC = test system: EKVX NSCLC
BT-549 breast = test system: BT-549 breast
ACHN renal = test system: ACHN renal
MCF7 breast = test system: MCF7 breast
T-47D breast = test system: T-47D breast
UACC-62 melanoma = test system: UACC-62 melanoma
OVCAR-8 ovarian = test system: OVCAR-8 ovarian
MDA-MB-435 = test system: MDA-MB-435
A498 renal = test system: A498 renal
HOP-62 NSCLC = test system: HOP-62 NSCLC
A549 NSCLC = test system: A549 NSCLC
K-562 leukemia = test system: K-562 leukemia
COLO 205 colon = test system: COLO 205 colon
UACC-257 melanoma = test system: UACC-257 melanoma
SF-268 CNS = test system: SF-268 CNS
LOX IMVI melanoma = test system: LOX IMVI melanoma
MALME-3M melanoma = test system: MALME-3M melanoma
RPMI-8226 leukemia = test system: RPMI-8226 leukemia
SR leukemia = test system: SR leukemia
SN12C renal = test system: SN12C renal
NCI-H23 lung = test system: NCI-H23 lung
CCRF-CEM leukemia = test system: CCRF-CEM leukemia

Nc1nc(N)c2c(n1)NC(c1ccc(Cl)cc1)CC(c1ccc(Nc3nc(NCCO)nc(Nc4ccc(Cl)cc4)n3)cc1)=N2 (stereo not given)
GI50 (U251 CNS): 1.47 µM
TGI (U251 CNS): 2.92 µM
GI50 (HOP-92 NSCLC): 1.29 µM
TGI (HOP-92 NSCLC): 3.12 µM
GI50 (SK-OV-3 ovarian): 14.8 µM
TGI (SK-OV-3 ovarian): 29.3 µM
GI50 (NCI-H522 lung): 1.56 µM
TGI (NCI-H522 lung): 3.16 µM
GI50 (KM12 colon): 3.18 µM
TGI (KM12 colon): 10.3 µM
GI50 (DU-145 prostate): 2.22 µM
TGI (DU-145 prostate): 5.81 µM
GI50 (NCI/ADR-RES ovarian): 4.24 µM
TGI (NCI/ADR-RES ovarian): > 100 µM
GI50 (SW-620 colon): 1.62 µM
TGI (SW-620 colon): 3.3 µM
GI50 (MDA-MB-231 breast): 1.75 µM
TGI (MDA-MB-231 breast): 3.92 µM
GI50 (SK-MEL-5 melanoma): 1.48 µM
TGI (SK-MEL-5 melanoma): 2.8 µM
GI50 (SF-295 CNS): 1.73 µM
TGI (SF-295 CNS): 3.67 µM
GI50 (HCT-116 colon): 1.4 µM
TGI (HCT-116 colon): 2.69 µM
GI50 (IGROV1 ovarian): 1.71 µM
TGI (IGROV1 ovarian): 3.58 µM
GI50 (NCI-H226 lung): 6.47 µM
TGI (NCI-H226 lung): 29.8 µM
GI50 (CAKI-1 renal): 5.36 µM
TGI (CAKI-1 renal): 28.2 µM
GI50 (HCT-15 colon): 1.29 µM
TGI (HCT-15 colon): 2.8 µM
GI50 (OVCAR-5 ovarian): 4.48 µM
TGI (OVCAR-5 ovarian): 19.8 µM
GI50 (HT29 colon): 1.7 µM
TGI (HT29 colon): 3.68 µM
GI50 (SK-MEL-2 melanoma): 1.45 µM
TGI (SK-MEL-2 melanoma): 2.83 µM
GI50 (SNB-19 CNS): 1.99 µM
TGI (SNB-19 CNS): 5.81 µM
GI50 (786-0 renal): 1.55 µM
TGI (786-0 renal): 3.04 µM
GI50 (SK-MEL-28 melanoma): 1.73 µM
TGI (SK-MEL-28 melanoma): 3.11 µM
GI50 (HCC-2998 colon): 1.44 µM
TGI (HCC-2998 colon): 2.78 µM
GI50 (UO-31 renal): 3.1 µM
TGI (UO-31 renal): 15.3 µM
GI50 (HL-60(TB) leukemia): 1.15 µM
TGI (HL-60(TB) leukemia): 3.94 µM
GI50 (TK-10 renal): 10.6 µM
TGI (TK-10 renal): 25.3 µM
GI50 (SF-539 CNS): 1.68 µM
TGI (SF-539 CNS): 3.32 µM
GI50 (PC-3 prostate): 1.93 µM
TGI (PC-3 prostate): 7.55 µM
GI50 (OVCAR-4 ovarian): 1.96 µM
TGI (OVCAR-4 ovarian): 5.04 µM
GI50 (M14 melanoma): 1.9 µM
TGI (M14 melanoma): 4.39 µM
GI50 (RXF 393 renal): 1.54 µM
TGI (RXF 393 renal): 2.97 µM
GI50 (SNB-75 CNS): 1.59 µM
TGI (SNB-75 CNS): 3.97 µM
GI50 (NCI-H460 lung): 1.72 µM
TGI (NCI-H460 lung): 3.32 µM
GI50 (HS 578T breast): 2.22 µM
TGI (HS 578T breast): 5.01 µM
GI50 (MOLT-4 leukemia): 0.792 µM
TGI (MOLT-4 leukemia): 3.92 µM
GI50 (EKVX NSCLC): 2.01 µM
TGI (EKVX NSCLC): 6.88 µM
GI50 (BT-549 breast): 2.25 µM
TGI (BT-549 breast): 5.89 µM
GI50 (ACHN renal): 4.69 µM
TGI (ACHN renal): > 100 µM
GI50 (MCF7 breast): 1.2 µM
TGI (MCF7 breast): 2.57 µM
GI50 (T-47D breast): 1.71 µM
TGI (T-47D breast): 6.51 µM
GI50 (UACC-62 melanoma): 2.03 µM
TGI (UACC-62 melanoma): 4.28 µM
GI50 (OVCAR-8 ovarian): 1.57 µM
TGI (OVCAR-8 ovarian): 3.27 µM
GI50 (MDA-MB-435): 1.63 µM
TGI (MDA-MB-435): 3.18 µM
GI50 (A498 renal): 5.9 µM
TGI (A498 renal): 19.8 µM
GI50 (HOP-62 NSCLC): 2.83 µM
TGI (HOP-62 NSCLC): 10.9 µM
GI50 (A549 NSCLC): 4.12 µM
TGI (A549 NSCLC): > 100 µM
GI50 (K-562 leukemia): 0.713 µM
TGI (K-562 leukemia): 3.2 µM
GI50 (COLO 205 colon): 1.51 µM
TGI (COLO 205 colon): 3.59 µM
GI50 (UACC-257 melanoma): 1.91 µM
TGI (UACC-257 melanoma): 3.74 µM
GI50 (SF-268 CNS): 4.14 µM
TGI (SF-268 CNS): 26.1 µM
GI50 (LOX IMVI melanoma): 1.45 µM
TGI (LOX IMVI melanoma): 2.86 µM

Oc1ccc(CSc2nnc(-c3ccc(Cl)cc3)o2)c2cccnc12
GI50 (U251 CNS): 1.11 µM
TGI (U251 CNS): > 100 µM
GI50 (HOP-92 NSCLC): 1.14 µM
TGI (HOP-92 NSCLC): 6.72 µM
GI50 (SK-OV-3 ovarian): 3.15 µM
TGI (SK-OV-3 ovarian): > 100 µM
GI50 (NCI-H522 lung): 2.92 µM
TGI (NCI-H522 lung): > 100 µM
GI50 (KM12 colon): 1.96 µM
TGI (KM12 colon): > 100 µM
GI50 (MALME-3M melanoma): 2.87 µM
TGI (MALME-3M melanoma): > 100 µM
GI50 (DU-145 prostate): 3.67 µM
TGI (DU-145 prostate): > 100 µM
GI50 (RPMI-8226 leukemia): 1.22 µM
TGI (RPMI-8226 leukemia): > 100 µM
GI50 (SW-620 colon): 2.91 µM
TGI (SW-620 colon): > 100 µM
GI50 (MDA-MB-231 breast): 3.18 µM
TGI (MDA-MB-231 breast): > 100 µM
GI50 (SK-MEL-5 melanoma): 1.89 µM
TGI (SK-MEL-5 melanoma): 5.16 µM
GI50 (SF-295 CNS): 2.34 µM
TGI (SF-295 CNS): > 100 µM
GI50 (HCT-116 colon): 1.76 µM
TGI (HCT-116 colon): > 100 µM
GI50 (IGROV1 ovarian): 2.8 µM
TGI (IGROV1 ovarian): > 100 µM
GI50 (SR leukemia): 0.777 µM
TGI (SR leukemia): > 100 µM
GI50 (CAKI-1 renal): 2.91 µM
TGI (CAKI-1 renal): > 100 µM
GI50 (HCT-15 colon): 0.698 µM
TGI (HCT-15 colon): > 100 µM
GI50 (HT29 colon): > 100 µM
TGI (HT29 colon): > 100 µM
GI50 (SNB-19 CNS): 1.52 µM
TGI (SNB-19 CNS): > 100 µM
GI50 (786-0 renal): 3.22 µM
TGI (786-0 renal): > 100 µM
GI50 (SK-MEL-28 melanoma): 2.38 µM
TGI (SK-MEL-28 melanoma): > 100 µM
GI50 (SN12C renal): 2.54 µM
TGI (SN12C renal): > 100 µM
GI50 (HCC-2998 colon): 2.29 µM
TGI (HCC-2998 colon): > 100 µM
GI50 (HL-60(TB) leukemia): 1.91 µM
TGI (HL-60(TB) leukemia): 9.57 µM
GI50 (PC-3 prostate): 1.49 µM
TGI (PC-3 prostate): > 100 µM
GI50 (OVCAR-4 ovarian): 3.07 µM
TGI (OVCAR-4 ovarian): > 100 µM
GI50 (RXF 393 renal): 2.37 µM
TGI (RXF 393 renal): > 100 µM
GI50 (SNB-75 CNS): 1.52 µM
TGI (SNB-75 CNS): 7.81 µM
GI50 (HS 578T breast): 1.62 µM
TGI (HS 578T breast): 64.7 µM
GI50 (MOLT-4 leukemia): 2.37 µM
TGI (MOLT-4 leukemia): > 100 µM
GI50 (EKVX NSCLC): 2.76 µM
TGI (EKVX NSCLC): > 100 µM
GI50 (BT-549 breast): 2.47 µM
TGI (BT-549 breast): > 100 µM
GI50 (MCF7 breast): 2.66 µM
TGI (MCF7 breast): > 100 µM
GI50 (T-47D breast): 2.54 µM
TGI (T-47D breast): > 100 µM
GI50 (NCI-H23 lung): 2.42 µM
TGI (NCI-H23 lung): > 100 µM
GI50 (OVCAR-8 ovarian): 2.32 µM
TGI (OVCAR-8 ovarian): > 100 µM
GI50 (MDA-MB-435): 2.96 µM
TGI (MDA-MB-435): > 100 µM
GI50 (HOP-62 NSCLC): 2.92 µM
TGI (HOP-62 NSCLC): > 100 µM
GI50 (A549 NSCLC): 2.78 µM
TGI (A549 NSCLC): > 100 µM
GI50 (K-562 leukemia): 2.17 µM
TGI (K-562 leukemia): > 100 µM
GI50 (CCRF-CEM leukemia): 1 µM
TGI (CCRF-CEM leukemia): > 100 µM
GI50 (COLO 205 colon): > 100 µM
TGI (COLO 205 colon): > 100 µM
GI50 (UACC-257 melanoma): 3.19 µM
TGI (UACC-257 melanoma): > 100 µM
GI50 (SF-268 CNS): 1.56 µM
TGI (SF-268 CNS): > 100 µM
